In the assay the test system is collagen-antibody induced arthritis. In words: collagen-antibody induced arthritis model. It counts as in vivo, C57BL6J male mice. As to conditions: administration in collagen-antibody induced arthritis mouse model; summary statement, no details. The protocol: C57BL6J male mice were injected intraperitoneally with a cocktail of arthritogenic anti-type II collagen (2 mg/mouse) at day 0. At day 3, mice received an injection of lipopolysaccharide from bacterial cells walls of E. coli 055: B5. The severity of arthritis was evaluated every other day on each paw with a score from 0 to 4, for a maximal score of 16 by animal (0=normal joint, 1=moderate redness and slight swelling or swelling of one or two digits, 2=moderate redness and moderate paw swelling or swelling more than three digits, 3=redness and swelling from tarsal joints to metatarsal joints, 4=severe redness and severe swelling of the entire paw). Hindpaw swelling was measured at the same time by plethysmography. Paw volume determined prior to disease induction was used as the baseline. The development of arthritis was analyzed by histological assessment. Hindpaws were dissected then fixed in 4% formalin (Labonord). Hindpaws were further decalcified in 10% EDTA for 1 month and embedded in paraffin blocks. Five μm-thick tissue sections were cut and two stainings were performed, hematoxylin, eosin and toluidine blue. Histological examination was carried out blindly by three independent observers. Synovium from ankle joint was graded on a scale of 0 to 3 (with 0=normal and 3=major changes) for synovial hyperplasia (width of lining layer) and tissue cell infiltration. […]

This is an account of results in US20250367269A1, “KYNURENINE AMINOTRANSFERASE AND PRODUCTS THEREOF FOR THE TREATMENT OF ARTHRITIC DISEASES” (Institut National de Recherche Pour L'Agriculture, …, priority 2022, published 2025).

SMILES strings stand for the structures.

As for `O=C(O)c1cc(O)c2cccc(O)c2n1` [xanthurenic acid], the arthritis severity entry is reported as “reduces arthritis severity”.
